Measured values reported in publication PMC3519527, “Compounds from Sorindeia juglandifolia (Anacardiaceae) exhibit potent anti-plasmodial activities in vitro and in vivo” (Malaria Journal, 2012).
“And” between values parts separate entries of the source, which are not always exact repeats. Equal entries are not always repeated. Structures can show the parent of a compound that is named as a salt. Where two headings read alike, the source gives them in different places. Blank lines part the entries; values can stand above or below the compound they belong to.

Experiments:
[1] = test system: Plasmodium falciparum chloroquine-resistant strain W2; test: In vitro screening against Plasmodium falciparum W2 (flow cytometry, 48 h); assay type: cell-based; conditions: read-out: P. falciparum W2 IC50±SD
Method: Plasmodium falciparum strain W2, known to be resistant to chloroquine and other anti-malarials, was cultured in sealed flasks at 37°C, in a 3% O2, […] and 91% N2 atmosphere in RPMI 1640, 25 mM HEPES, pH 7.4, supplemented with heat inactivated 10% human serum and human erythrocytes to achieve a 2% haematocrit. Serum and erythrocytes were purified from blood voluntarily given by adults with no recent contact with malaria, and who have signed an informed consent form. Parasites were synchronized in the ring stage by serial treatment with 5% sorbitol (Sigma) and tested at 1% parasitaemia. Stock solutions of plant extracts were prepared as 1 mg/ml in DMSO, diluted as needed for individual experiments, and tested in triplicate as described previously. The stock solutions were diluted in supplemented RPMI 1640 medium so as to have at most 0.2% DMSO in the final reaction medium. Equal volumes (100μl) of inhibitors and 1% parasitaemia, 4% haematocrit culture were then added and gently mixed thoroughly. Negative controls contained equal concentrations of DMSO. Positive controls contained 1 μM chloroquine phosphate (Sigma). Cultures were incubated at 37°C for 48 h. Parasites at the ring stage were thereafter fixed by replacing the serum medium by an equal volume of 1% formaldehyde in PBS. Aliquots (5 μl) of each culture were then added to round-bottom polystyrene 96 well plates containing 150 μl of 100 mM NH4Cl, 0.1% Triton X- 100 and 1 nM YOYO-1 nuclear dye (Molecular Probes) in PBS, and the parasitaemia of treated and control cultures were compared using a Becton-Dickinson FACSort flow cytometer equipped with AMS-1 loader (Cytek Development) to count nucleated (parasitized) erythrocytes. Data acquisition was performed using Cell Quest software.

[2] = test system: P. falciparum field isolates; test: In vitro screening against Plasmodium falciparum field isolates (Giemsa smears, 48 h); assay type: cell-based
Method: Plasmodium falciparum isolates were prepared as described previously. Blood was collected from outpatients presenting at the Etoug-Ebe Baptist Health Centre in Yaoundé with uncomplicated malaria. Patients older than five years of age with mono infection with P. falciparum and parasite density greater than 6,000 asexual parasites per microliter of blood were considered for inclusion in the study. Those with recent history of self-medication with anti-malarial drugs were excluded. After patients agreed to participate in the study and signed the consent form, 5 mL of blood was collected from them by venipuncture into heparinized tubes. The blood was centrifuged at 3,000 rpm for 15 min and the supernatant discarded. The pellets were suspended in 10 mL of pre-warmed RPMI 1640 medium and centrifuged again twice at 3,000 rpm for 5 min, and the supernatant was then discarded. The volume of the packed-cells was estimated and mixed with an equal amount of RPMI 1640, 25 mM HEPES, pH 7.4, and subsequently used at 4% haematocrit for experiments. Thin smears were evaluated to assess the parasitaemia, the developmental stages of parasites, and the colour, shape and size of red blood cells. Nine such isolates were prepared and subsequently used for experiments.
The activity of plant products was assessed as previously described. […] Stock solutions of plant extracts were prepared at 1 mg/ml in DMSO and diluted as needed for individual experiments in 96-well plates using RPMI 1640, to achieve a maximum final DMSO concentration of 0.2%. Chloroquine was used as positive control at 1 μM, and the negative control was an equal concentration of DMSO. To assess the susceptibility of parasites to drugs, they were maintained in RPMI 1640 supplemented with 25 mM HEPES buffer (pH 7.4), 0.05% ampicillin, and 10% AB+ human serum at 37°C, in a candle jar. To achieve this, 200 μl parasite suspensions at 4% haematocrit and 0.1%– 0.3% parasitaemia were added to 50 μl of each concentration of inhibitor in individual wells, each tested in triplicate. Cultures were incubated at 37°C for 48 h in a candle jar. To estimate the effects of inhibitors after 48 h, thin smears from treated and control cultures were fixed in methanol for 30 s, stained using fresh 5% Giemsa solution (Sigma) in phosphate buffer (pH 7.1), and examined by counting the parasitaemia per 100 erythrocytes. IC50s were calculated from curves plotting percent growth versus drug concentration using Prism 5.0 software with data fitted by nonlinear regression to the variable slope sigmoidal dose–response formula y = 100/[1 + 10^(logIC50− x)H, where H is the Hill coefficient or slope factor [5].

recombinant falcipain-2 = target: T1, recombinant falcipain-2 (Plasmodium falciparum, UniProt Q8I6U4); test: Falcipain-2 inhibition (Z-Leu-Arg-AMC hydrolysis); assay type: biochemical; conditions: recombinant enzyme, pH 5.5, triplicate; for IC50: read-out: Falcipain-2 IC50±SD
T1 construct: made in house
T1 sequence (Q8I6U4 244-484): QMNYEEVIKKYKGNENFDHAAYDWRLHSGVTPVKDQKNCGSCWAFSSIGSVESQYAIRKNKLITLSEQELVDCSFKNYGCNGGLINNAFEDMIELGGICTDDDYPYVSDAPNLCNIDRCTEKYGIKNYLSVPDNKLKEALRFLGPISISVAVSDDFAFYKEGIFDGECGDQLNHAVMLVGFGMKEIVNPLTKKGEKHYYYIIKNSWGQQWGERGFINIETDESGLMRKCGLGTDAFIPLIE
Method: Falcipain-2 activity was measured as hydrolysis of the fluorogenic substrate benzyloxycarbonyl-Leu-Arg-7-amino-4-methyl-coumarin (Z-Leu-Arg-AMC) using a Fluoroskan II spectrofluorometer, as described previously. For inhibitor assays, recombinant falcipain-2 prepared as described previously was incubated with inhibitors (added from stocks concentrated 100- to 1,000-fold in dimethyl sulfoxide [DMSO]) with 10 mM dithiothreitol, pH 5.5, for 30 min at room temperature before the substrate (50 μM) was added. Equal concentrations of enzyme were used for each experiment. Multiple inhibitor concentrations were studied in triplicate, and the rates of hydrolysis were determined and compared to those of controls containing equal concentrations of DMSO. All values were normalized to the control activity, and IC50s were calculated with the Prism 5.0 program, with data fitted by nonlinear regression.

[3] = test system: Plasmodium berghei strain B; test: In vivo curative test in mice; set-up: species or system Plasmodium berghei in Swiss albino mice
Method: (§1) Compound 1 (2,3,6-trihydroxy benzoic acid), obtained from the fractionation of S.juglandifolia extract, was assessed in vivo using the Plasmodium berghei rodent parasite model, according to the procedure described by Okokon et al.[12] with a few modifications. Plasmodium berghei strain B (MRA-406, MR4, ATCC® Manassas Virginia) was obtained from BEI Resources and used for the experiments. Female Swiss albino mice aged eight weeks and weighing ~20 g were used for efficacy and toxicity experiments. These animals were bred in the animal house of the Faculty of Medicine, University of Yaoundé I. They were fed a standard laboratory diet (S.P.C. Ltd., Bafoussam, Cameroon) and given clean tap water ad libitum. Animal welfare requirements were strictly considered during the experiments, as described in the protocol approved by the National Ethics Committee (Reg. No.FWAIRB00001954). To start infections, a cryotube of parasites was thawed and the undiluted contents were injected immediately i.p. into naïve recipient mice. Three days after infection, the parasitaemia was evaluated daily in tail vein blood through Giemsa-stained thin smear observation under oil immersion at 100X magnification. Passage of infection into new mice consisted of an i.p. injection of 200 μL of 10^6 infected erythrocytes/mL sterile PBS. The test compound was dissolved and diluted in Tween 20: Ethanol (7:3 v/v).
(§2) Curative assays were subsequently conducted using the same setting, with animal receiving drug at daily oral dosages of 10, 30, 50 and 100 mg/kg for 5 consecutive days, starting day 3 (72 hours) after infection. Thin blood smears were made daily from the tail blood of mice and the level of parasitaemia assessed by examination of Giemsa-stained smears using a microscope at 100X magnification.

[4] = test system: Plasmodium berghei strain B; test: In vivo suppressive test in mice; set-up: species or system Plasmodium berghei in Swiss albino mice; conditions: for SD50 (suppressive dose at 50%): oral, parasitaemia 24 h after last dose
Method: as §1
Preliminary screening of the compound consisted of a suppressive test. To achieve this, animals were infected i.p. with 200 μL of 10^6 infected erythrocytes/mL sterile PBS. Four hours after infection, duplicate batches of animals were treated as follows: four batches of six mice each were given test drug orally at respective dosages of 10, 30, 50 and 100 mg/kg, and subsequently once daily for four consecutive days. Negative controls consisted of one batch of 6 infected mice receiving no drug (dose 0), and one batch of six uninfected animals. Positive controls consisted of one batch of infected mice receiving quinine sulfate at 24 mg/kg.
as §2

[5] = Plasmodium falciparum, W2, 48 h, W2 strain, 48 h, triplicate
[6] = Plasmodium falciparum, isolate E01, read-out: IC50±SD
[7] = Plasmodium falciparum, isolate E02, read-out: IC50±SD
[8] = Plasmodium falciparum, isolate E03, read-out: IC50±SD
[9] = Plasmodium falciparum, isolate E04, read-out: IC50±SD
[10] = Plasmodium falciparum, isolate E05, read-out: IC50±SD
[11] = Plasmodium falciparum, isolate E06, read-out: IC50±SD
[12] = Plasmodium falciparum, isolate E07, read-out: IC50±SD
[13] = Plasmodium falciparum, isolate E08, read-out: IC50±SD
[14] = Plasmodium falciparum, isolate E09, read-out: IC50±SD

- IC50 [1, 5]: 0.007 ± 0.01 mg/L
SMILES: C[C@@H]1CC[C@H]2[C@@H](C)C(=O)O[C@@H]3O[C@@]4(C)CC[C@@H]1[C@]32OO4 [ART, artemisinin, reference compound]

- IC50 [2, 6]: 11.3 ± 0.92 µM
- IC50 [2, 7]: 17.1 ± 0.48 µM
- IC50 [2, 8]: 22 ± 0.93 µM
- IC50 [2, 9]: 24.8 ± 1.04 µM
- IC50 [2, 10]: 6.32 ± 0.16 µM
- IC50 [2, 11]: 36.1 ± 2.01 µM
- IC50 [2, 12]: 33.7 ± 0.61 µM
- IC50 [2, 13]: 9.92 ± 4.82 µM
- IC50 [2, 14]: 19.77 ± 0.14 µM
- IC50 ([2]; Plasmodium falciparum, span over the nine field isolates, read-out: IC50 against P. falciparum isolates): 6.3 µM
- IC50 ([2]; span over the nine field isolates, read-out: IC50 against P. falciparum isolates): 6.3 to 36.1 µM
- IC50 (recombinant falcipain-2): 35.4 µM
- melting point: 188.5 to 190 °C
- IC50 [1, 5]: 16.5 µM
- IC50 ([1]; W2 strain, 48 h, triplicate, listed as 2,3,6-trihydroxy benzoic acid (1)): 16.5 ± 0.47 µM
SMILES: O=C(O)c1c(O)ccc(O)c1O [Compound 1, 2,3,6-trihydroxy benzoic acid]
- Mean % Suppression/Inhibition ([3]; 10 mg/kg oral daily for 5 days from day 3): 20.95%
- Mean % Suppression/Inhibition ([3]; 30 mg/kg oral daily for 5 days from day 3): 41.00%
- Mean % Suppression/Inhibition ([3]; 50 mg/kg oral daily for 5 days from day 3): 57.27%
- Mean % Suppression/Inhibition ([3]; 100 mg/kg oral daily for 5 days from day 3): 66.40%
- ED50 ([3]; Plasmodium berghei, oral, parasitaemia 24 h after last dose, read-out: ED50 (effective dose at 50%)): 42.2 mg/kg
- Mean % Suppression/Inhibition ([4]; 10 mg/kg oral, once daily, 24 h after last dose): 22.73%
- Mean % Suppression/Inhibition ([4]; 30 mg/kg oral, once daily, 24 h after last dose): 35.95%
- Mean % Suppression/Inhibition ([4]; 50 mg/kg oral, once daily, 24 h after last dose): 53.66%
- Mean % Suppression/Inhibition ([4]; 100 mg/kg oral, once daily, 24 h after last dose): 69.63%
- SD50 (suppressive dose at 50%) [4]: 44.9 mg/kg and 44.9 ± 1.6 mg/kg
- SD50 (suppressive dose at 50%) ([4]; listed as 2,3,6-trihydroxy benzoic acid (1)): ^cSD50 = 44.9 ± 1.6 mg/kg

- IC50 [2, 6]: 7.02 ± 0.07 µM
- IC50 [2, 7]: 14.7 ± 0.15 µM
- IC50 [2, 8]: 19.8 ± 0.38 µM
- IC50 [2, 9]: 18.8 ± 1.04 µM
- IC50 [2, 10]: 12.2 ± 0.02 µM
- IC50 [2, 11]: 23.1 ± 2.01 µM
- IC50 [2, 12]: 26.69 ± 0.02 µM
- IC50 [2, 13]: 13.3 ± 1.85 µM
- IC50 [2, 14]: 24.4 ± 0.05 µM
- IC50 (recombinant falcipain-2): 6.1 µM and 6.09 µM
- IC50 [1, 5]: 13 µM
- IC50 ([1]; W2 strain, 48 h, triplicate, listed as 2,3,6-trihydroxy methyl benzoate (2)): 13 ± 1.63 µM
SMILES: COC(=O)c1c(O)ccc(O)c1O [Compound 2, 2,3,6-trihydroxy methyl benzoate]

- Falcipain-2 IC50±SD (recombinant falcipain-2): 0.049 ± 0.003 mg/L
SMILES: CC(C)C[C@H](NC(=O)[C@H]1O[C@@H]1C(=O)O)C(=O)NCCCCN=C(N)N [Compound E64, l-transepoxy-succinyl-leucylamido-(4-guanidino)-butane, reference compound]

Continued, compound first:

SMILES: CCN(CC)CCCC(C)Nc1ccnc2cc(Cl)ccc12 (centres unmarked) [CQ, chloroquine, reference compound]
- IC50 ([2]; Plasmodium falciparum, read-out: IC50 against P. falciparum isolates, span over the nine field isolates): 0.0166 to 0.0384 mg/L
- IC50 ([2]; Plasmodium falciparum, read-out: IC50±SD, isolate E01): 0.0254 ± 0.00347 mg/L
- IC50 ([2]; Plasmodium falciparum, read-out: IC50±SD, isolate E02): 0.0233 ± 0.019 mg/L
- IC50 ([2]; Plasmodium falciparum, read-out: IC50±SD, isolate E03): 0.0384 ± 0.00437 mg/L
- IC50 ([2]; Plasmodium falciparum, read-out: IC50±SD, isolate E04): 0.0272 ± 0.00072 mg/L
- IC50 ([2]; Plasmodium falciparum, read-out: IC50±SD, isolate E05): 0.0166 ± 0.00148 mg/L
- IC50 ([2]; Plasmodium falciparum, read-out: IC50±SD, isolate E06): 0.0192 ± 0.00486 mg/L
- IC50 ([2]; Plasmodium falciparum, read-out: IC50±SD, isolate E07): 0.0243 ± 0.00332 mg/L
- IC50 ([2]; Plasmodium falciparum, read-out: IC50±SD, isolate E08): 0.0187 ± 0.00094 mg/L
- IC50 ([2]; Plasmodium falciparum, read-out: IC50±SD, isolate E09): 0.0188 ± 0.00187 mg/L
- IC50 ([1]; Plasmodium falciparum, W2, 48 h): 0.05 ± 0.01 mg/L

SMILES: C=C[C@H]1C[N@@]2CC[C@H]1C[C@H]2[C@H](O)c1ccnc2ccc(OC)cc12 [Quinine sulfate, quinine sulfate, reference compound]
- Mean % Suppression/Inhibition ([3]; 24 mg/kg, positive control): 89.50%
- Mean % Suppression/Inhibition ([4]; 24 mg/kg, positive control): 71.34%
